Measurements from PMC6470675, “Design and Synthesis of New Quinoxaline Derivatives as Anticancer Agents and Apoptotic Inducers” (Molecules, 2019).
Where two headings read alike, the source gives them in different places.

Tests used:
[1] = molecular target: T1, VEGFR-2 (Homo sapiens, UniProt P35968); experiment: In vitro VEGFR-2 inhibition assay (Kinase-Glo Plus luminescence); format: biochemical; conditions: read-out: % of VEGFR-2 Inhibition
T1 construct: purchased Bio Science Corporation (BPS), San Diego, CA, USA
Description: In an attempt to investigate the possible mechanism of action of the synthesized compounds based on structural similarity with sorafenib, all of them were tested for VEGFR-2 inhibitory activity at Bio Science Corporation (BPS, San Diego, CA, USA). The assay was performed using the Kinase-Glo Plus luminescence kinase assay kit (Promega, San Diego, CA, USA). It measures kinase activity by quantitating the amount of ATP remaining in solution following a kinase reaction. […].
The in-vitro enzyme inhibition determination for the synthesized compounds was carried out at Bio Science Corporation (BPS)-San Diego, CA, USA. The assay was performed using Kinase-Glo Plus luminescence kinase assay kit (Promega), where the kinase activity was measured by quantitating the amount of ATP remaining in solution following a kinase reaction. The luminescent signal from the assay is correlated with the amount of ATP present and is inversely correlated with the amount of kinase activity. Our compounds were diluted with 10% DMSO and 5 µL of the dilution was added to a 50 µL reaction so that the final concentration of DMSO is 1% in all of reactions. All of the enzymatic reactions were conducted at 30 °C for 40 min. The 50 µL reaction mixture contains 40 mM Tris, pH 7.4, 10 mM MgCl2, 0.1 mg/mL BSA, 1 mM DTT, 10 µM ATP, Kinase substrate and the enzyme. After the enzymatic reaction, 50 µL of Kinase-Glo Plus Luminescence kinase assay solution (Promega San Diego, CA, USA) was added to each reaction and incubate the plate for 5 min at room temperature. Luminescence signal was measured using a BioTek Synergy 2 microplate reader.
Kinase activity assays were performed in duplicate at each concentration. The luminescence data were analyzed using the computer software, Graphpad Prism. The difference between luminescence intensities in the absence of Kinase (Lut) and in the presence of Kinase (Luc) was defined as 100% activity (Lut − Luc). Using luminescence signal (Lu) in the presence of the compound, % activity was calculated as:% activity = {(Lut − Lu)(Lut − Luc)} × 100% where Lu = the luminescence intensity in the presence of the compound.

[2] = system: HCT116 human colon carcinoma cell line; experiment: In vitro cell proliferation (MTT) assay, HCT116; format: cell-based; conditions: for IC50: Homo sapiens, HCT-116, MTT, 72 h exposure
Description: (§1) The targeted compounds were tested for their in-vitro anti-cancer activity against three tumor cell lines (HCT116, Hep G2 and MCF-7). Doxorubicin was included in the experiments as a reference cytotoxic compound. Exponentially growing cells from different cancer cell lines were trypsinized, counted and seeded at the appropriate densities into 96-well microtiter plates. Cells then were incubated in a humidified atmosphere at 37 °C for 24 h. Then, cells were exposed to different concentrations of compounds for 72 h. Then the viability of treated cells was determined using MTT technique (described latter).
(§2) Three cancer cell lines including human colon carcinoma (HCT116), human breast adenocarcinoma (MCF-7) and human hepatocellular carcinoma (Hep G2), were purchased from American Type Cell Culture Collection (ATCC, Manassas, VA, USA) and grown on the appropriate growth medium Dulbecco’s modified Eagle’s medium (DMEM) or Roswell Park Memorial Institute medium (RPMI 1640) supplemented with […] of streptomycin, 100 units/mL of penicillin and 10% of heat-inactivated fetal bovine serum in a humidified, 5% (v/v) CO2 atmosphere at 37 °C [34]. Cytotoxicity assay by 3-[4,5-dimethylthiazole-2-yl]-2,5-diphenyltetrazolium bromide (MTT).
(§3) Exponentially growing cells from different cancer cell lines were trypsinized, counted and seeded at the appropriate densities (2000–1000 cells/0.33 cm^2 well) into 96-well microtiter plates. Cells then were incubated in a humidified atmosphere at 37 °C for 24 h. Then, cells were exposed to different concentrations of compounds (0.1, 10, 100, 1000 µM) for 72 h. Then the viability of treated cells was determined using MTT technique as follow. Media were removed; cells were incubated with 200 μL of 5% MTT solution/well (Sigma Aldrich, Darmstadt, Germany) and were allowed to metabolize the dye into a colored-insoluble formazan crystal for 2 h. The remaining MTT solution were discarded from the wells and the formazan crystals were dissolved in 200 µl/well acidified isopropanol for 30 min, covered with aluminum foil and with continuous shaking using a MaxQ 2000 plate shaker (Thermo Fisher Scientific Inc, Waltham, MA, USA) at room temperature. Absorbance were measured at 570 nm using a Stat Fax^R 4200 plate reader (Awareness Technology, Inc., Awareness Technology, FL, USA). The cell viability was expressed as percentage of control and the concentration that induces 50% of maximum inhibition of cell proliferation (IC50) were determined using Graph Pad Prism version 5 software (Graph Pad Software Inc, San Diego, CA, USA) (1,2).

[3] = system: Hep G2 human hepatocellular carcinoma cell line; experiment: In vitro cell proliferation (MTT) assay, Hep G2; format: cell-based; conditions: for IC50: Homo sapiens, HepG2, MTT, 72 h exposure
Description: as §1, §2, §3

[4] = system: MCF-7 human breast adenocarcinoma cell line; experiment: In vitro cell proliferation (MTT) assay, MCF-7; format: cell-based; conditions: for IC50: Homo sapiens, MCF7, MTT, 72 h exposure
Description: as §1, §2, §3

T1 sequence (P35968 20-1356): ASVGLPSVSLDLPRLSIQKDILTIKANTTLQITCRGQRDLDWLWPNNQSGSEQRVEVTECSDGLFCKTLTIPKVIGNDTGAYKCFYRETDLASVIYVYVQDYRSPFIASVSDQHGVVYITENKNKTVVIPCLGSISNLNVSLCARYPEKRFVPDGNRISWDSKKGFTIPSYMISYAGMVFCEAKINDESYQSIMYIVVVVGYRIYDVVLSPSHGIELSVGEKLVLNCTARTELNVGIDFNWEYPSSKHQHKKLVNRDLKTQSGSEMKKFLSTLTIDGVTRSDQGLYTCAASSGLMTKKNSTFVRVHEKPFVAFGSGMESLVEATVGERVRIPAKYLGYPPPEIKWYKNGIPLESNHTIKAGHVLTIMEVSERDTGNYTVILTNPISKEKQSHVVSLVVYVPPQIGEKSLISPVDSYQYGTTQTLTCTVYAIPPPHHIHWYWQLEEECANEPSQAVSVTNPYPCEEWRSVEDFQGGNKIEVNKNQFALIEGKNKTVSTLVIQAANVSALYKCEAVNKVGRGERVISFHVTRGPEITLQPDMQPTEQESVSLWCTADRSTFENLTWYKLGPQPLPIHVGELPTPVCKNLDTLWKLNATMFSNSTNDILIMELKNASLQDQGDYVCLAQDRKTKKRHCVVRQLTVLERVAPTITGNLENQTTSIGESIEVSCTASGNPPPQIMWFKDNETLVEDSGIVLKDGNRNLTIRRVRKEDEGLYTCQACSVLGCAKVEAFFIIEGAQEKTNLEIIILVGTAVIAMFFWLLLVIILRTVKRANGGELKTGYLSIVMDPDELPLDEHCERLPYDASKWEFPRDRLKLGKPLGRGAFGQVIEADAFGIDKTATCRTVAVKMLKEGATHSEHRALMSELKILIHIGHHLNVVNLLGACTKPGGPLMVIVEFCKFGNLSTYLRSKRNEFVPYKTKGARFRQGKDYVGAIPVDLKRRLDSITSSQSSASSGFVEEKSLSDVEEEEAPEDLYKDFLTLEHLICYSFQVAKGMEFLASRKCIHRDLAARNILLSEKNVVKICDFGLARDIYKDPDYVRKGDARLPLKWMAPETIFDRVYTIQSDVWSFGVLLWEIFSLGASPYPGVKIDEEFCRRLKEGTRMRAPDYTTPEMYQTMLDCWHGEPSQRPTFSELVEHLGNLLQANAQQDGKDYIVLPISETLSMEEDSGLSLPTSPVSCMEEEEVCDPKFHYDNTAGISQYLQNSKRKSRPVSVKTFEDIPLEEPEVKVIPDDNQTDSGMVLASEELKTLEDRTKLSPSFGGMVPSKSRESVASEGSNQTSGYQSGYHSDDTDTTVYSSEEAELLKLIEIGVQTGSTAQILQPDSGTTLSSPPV

Cc1nc2ccccc2nc1Nc1ccc(NC(=O)Nc2ccccc2)cc1 [Compound VIIIb, 1-(4-((3-Methylquinoxalin-2-yl)amino)phenyl)-3-phenylurea]
inhibition at 10 µM ([1]; single concentration of 10 µM): 4%
melting point: > 300 °C
anti-cancer activity against HCT116 cell line (in words) [2]: weak activity
IC50 [2]: 38 µM
anti-cancer activity against Hep G2 cell line (in words) [3]: no significant inhibitory activity
IC50 [3]: 98 µM
loss of activity towards Hep G2 on conversion of thiourea VIIIa into the urea ([3]; relative to VIIIa): 10 fold
anti-cancer activity against MCF-7 cell line (in words) [4]: moderate activity
IC50 [4]: 13.5 µM

Cc1cccc(NC(=O)Nc2ccc(Nc3nc4ccccc4nc3C)cc2)c1 [Compound VIIId, 1-(4-((3-Methylquinoxalin-2-yl)amino)phenyl)-3-(m-tolyl)urea]
inhibition at 10 µM ([1]; single concentration of 10 µM): 5%
melting point: 280 to 281 °C
anti-cancer activity against HCT116 cell line (in words) [2]: moderate anti-cancer activity
IC50 [2]: 11 µM
anti-cancer activity against Hep G2 cell line (in words) [3]: weak activity
IC50 [3]: 36 µM
anti-cancer activity against MCF-7 cell line (in words) [4]: weak activity
IC50 [4]: 30 µM

Cc1nc2ccccc2nc1Nc1ccc(NC(=O)c2ccc(Cl)cc2)cc1 [Compound VIIb, 4-Chloro-N-(4-((3-methylquinoxalin-2-yl)amino)phenyl)benzamide]
inhibition at 10 µM ([1]; single concentration of 10 µM): 4%
melting point: 234 to 235 °C
anti-cancer activity against HCT116 cell line (in words) [2]: weak activity
IC50 [2]: 27.5 µM
IC50 [3]: 115 µM
IC50 [4]: 138 µM

COc1cccc2c1C(=O)c1c(O)c3c(c(O)c1C2=O)C[C@@](O)(C(=O)CO)C[C@@H]3O[C@H]1C[C@H](N)[C@H](O)[C@H](C)O1 [Doxorubicin, reference compound]
IC50 [2]: 0.62 µM
IC50 [3]: 1.2 µM
IC50 [4]: 0.9 µM

Cc1ccc(S(=O)(=O)Nc2ccc(Nc3nc4ccccc4nc3C)cc2)cc1 [IXa, 4-Methyl-N-(4-((3-methylquinoxalin-2-yl)amino)phenyl) benzenesulphonamide]
inhibition at 10 µM ([1]; single concentration of 10 µM): 3%
melting point: 198 to 199 °C
IC50 [2]: 21.9 µM
IC50 [3]: 22.9 µM
IC50 [4]: 22.9 µM

Cc1nc2ccccc2nc1Nc1ccc(NS(=O)(=O)c2ccc([N+](=O)[O-])cc2)cc1 [IXb, N-(4-((3-Methylquinoxalin-2-yl)amino)phenyl)-4-nitrobenzenesulfonamide]
inhibition at 10 µM ([1]; single concentration of 10 µM): 3%
melting point: 180 to 182 °C
IC50 [2]: 12 µM
IC50 [3]: 24.5 µM
IC50 [4]: 10.2 µM

CN[C@@H]1C[C@H]2O[C@@](C)([C@@H]1OC)n1c3ccccc3c3c4c(c5c6ccccc6n2c5c31)C(=O)NC4 [Staurosporine, staurosporine, reference compound]
inhibition at 10 µM [1]: 100%

Cc1ccc(S(=O)(=O)Nc2ccc(Nc3nc4ccccc4nc3Cl)cc2)cc1 [XVIIIa, N-(4-((3-Chloroquinoxalin-2-yl)amino)phenyl)-4-methylbenzenesulfonamide]
inhibition at 10 µM ([1]; single concentration of 10 µM): 4%
melting point: 250 to 252 °C
IC50 [2]: 302 µM
IC50 [3]: 490 µM
IC50 [4]: 537 µM

O=[N+]([O-])c1ccc(S(=O)(=O)Nc2ccc(Nc3nc4ccccc4nc3Cl)cc2)cc1 [XVIIIb, N-(4-((3-Chloroquinoxalin-2-yl)amino)phenyl)-4-nitrobenzenesulfonamide]
inhibition at 10 µM ([1]; single concentration of 10 µM): 9%
melting point: > 300 °C
IC50 [2]: > 1000 µM
IC50 [3]: > 1000 µM
IC50 [4]: 55 µM

S=C(Nc1ccccc1)Nc1ccc(Nc2nc3ccccc3nc2Cl)cc1 [XVIIa, 1-(4-((3-Chloroquinoxalin-2-yl)amino)phenyl)-3-phenylthiourea]
inhibition at 10 µM ([1]; single concentration of 10 µM): 10%
melting point: 190 to 191 °C
IC50 [2]: 309 µM
IC50 [3]: 575 µM
IC50 [4]: 170 µM

Cc1ccc(C(=O)Nc2ccc(Nc3nc4ccccc4nc3Cl)cc2)cc1 [XVId, N-(4-((3-Chloroquinoxalin-2-yl)amino)phenyl)-4-methylbenzamide]
inhibition at 10 µM ([1]; single concentration of 10 µM): 3%
melting point: 245 to 246 °C
